We go through one compound from PMC8692993, “PPARα and PPARγ activation is associated with pleural mesothelioma invasion but therapeutic inhibition is ineffective” (iScience, 2021).

In assay [1] the test system is JU77 human mesothelioma cell line. As to the kind of experiment: Soft agar colony formation assay. The assay is classed as cell-based. Conditions: JU77, GW6471 0.5-8 μM, p <0.05. On the procedure: Cells were incubated with different concentrations of GW6471 (from 0.5 μM to 8 μM) for a soft agar colony formation assay ([Horibata et al., 2015]). Briefly, 3% 2-hydroxyethyl agarose (agarose, A4018; Sigma-Aldrich, Australia) was prepared as stock solution. The bottom layer was prepared by incubating 20% agarose gel in R10 complete medium, RPMI 1640 (Invitrogen) supplemented with 10% foetal calf serum (FCS; Life Technologies), 20 mM HEPES (Sigma-Aldrich), 0.05 mM 2-mercaptoethanol (pH 7.2; Merck, Kilsyth, Australia), 60 μg/mL penicillin (Life Technologies), 50 μg/mL gentamicin (David Bull Labs), for a final concentration of 0.6%, 2mL per well, at 4°C for 1 h to allow the mixture to solidify, then incubating at 37°C for at least 30 min before seeding the cells. The cell-containing layer (10% agarose gel in R10 complete medium for a final concentration of 0.3%, 1 mL per well) was prepared with a concentration of 1,000 cells/mL. 1 mL of cells was then transfer to each well. […]
Colony counting was performed by adding 1 mL of 0.005% crystal violet (C0775; Sigma-Aldrich, Australia) in PBS on top of each well and incubating at room temperature for 24 h. Pictures were taken and colonies counted with ImageJ (v1.52a).

For the next assay, the target named is T1, PPARγ (Homo sapiens, UniProt P37231).
T1 sequence (P37231 238-503 limits assumed): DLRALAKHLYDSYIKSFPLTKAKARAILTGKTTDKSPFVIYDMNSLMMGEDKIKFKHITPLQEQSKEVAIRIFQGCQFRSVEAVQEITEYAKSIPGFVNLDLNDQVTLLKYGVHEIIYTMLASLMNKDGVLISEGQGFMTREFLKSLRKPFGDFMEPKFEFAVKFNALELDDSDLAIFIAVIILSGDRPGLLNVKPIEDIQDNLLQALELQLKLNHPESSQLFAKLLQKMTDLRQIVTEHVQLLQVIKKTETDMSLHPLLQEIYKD
Description: HG5LN reporter cell assay, PPARγ-mediated transcription. It is filed as cell-based. Details: expressed in transfected cells; host or cells: HG5LN (HeLa-derived, GAL4RE-luciferase). From the text:
Nuclear receptors, including PPARα and γ, are ligand-inducible transcription factors that form heterodimers with retinoid X receptors and bind to specific DNA sites located in the enhancer/promoter region of target genes, releasing co-repressors and/or recruiting co-activators ([Wang, 2010]). We therefore assessed the functional consequences of the ligands on PPARα and γ-mediated transcriptional activation in reporter cell lines. These cell lines were generated as previously reported by a two-step transfection procedure ([Seimandi et al., 2005]). First, a stable cell line, HG5LN, expressing the reporter gene (GAL4RE-luciferase) was developed from the HeLa cell line. These cells were then transfected with a plasmid expressing the C-terminal ligand-binding domain of PPARα or γ fused to GAL4 DNA-binding domain. The parental HG5LN cells were used as a control to test non-specific modulation of luciferase expression by the small molecules investigated (Figure S4A). The HG5LN PPAR reporter cells therefore allow comparison of the functional activity at, and selectivity of different ligands for, PPARα and γ. […] As expected ([Abu Aboud et al., 2015]), GW6471 potently antagonized PPARα (Figure 4E and Table 1).
A transfected […] cell line HG5LN was used ([Balaguer et al., 2001]). These cells were cultured in Dubecco's modified Eagle's medium (DMEM-F12 Thermo Fisher Scientific) with phenol red and supplemented with 5% foetal calf serum, incubated at 37°C in a 5% CO2/95% air-humidified atmosphere. Luciferase assays were performed in DMEM-F12 (Thermo Fisher Scientific) without phenol red and supplemented with 5% dextran-coated charcoal-stripped FCS (test culture medium), puromycin (Thermo Fisher Scientific) 0.5 μg/mL and geneticin (Thermo Fisher Scientific) 1 mg/mL. Cells were seeded at a density of 5 x 10^4 cells/well and incubated for 8 h at 37°C in a 96-well plate white opaque tissue culture plates (Becton-Dickinson). Tested compounds were added in serial dilutions and incubated for 16 h at 37°C. After incubation, the medium containing the effectors was carefully removed and replaced by culture medium containing 3 x 10^−4 mol/L luciferin (Sigma Chemicals). After 5 min incubation at room temperature, the 96-well plate was then read with a Microbeta Wallac luminometer and the luminescence was measured in the living cells for 2 s. All experiments were performed in quadruplicate.

Another assay addresses T2, PPARα (Homo sapiens, UniProt Q07869).
T2 sequence (Q07869 239-466 limits assumed): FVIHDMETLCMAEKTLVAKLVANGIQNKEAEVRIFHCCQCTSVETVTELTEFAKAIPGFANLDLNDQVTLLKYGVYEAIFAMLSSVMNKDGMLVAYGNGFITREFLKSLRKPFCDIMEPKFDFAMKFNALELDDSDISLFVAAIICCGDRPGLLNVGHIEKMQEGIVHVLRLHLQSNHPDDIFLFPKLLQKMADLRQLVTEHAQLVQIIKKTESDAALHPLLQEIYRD
Set-up: expressed in transfected cells; host or cells: HG5LN (HeLa-derived, GAL4RE-luciferase); method as in Xu et al., 2002. The settings on record: inhibition of agonism by 10 nM GW409544, ref Xu et al., 2002, read-out: Functionality, Lit. IC50; cited from earlier work.

As a reminder, the IC50 is the concentration that inhibits the measured activity by half. On to `CCC(=O)NC[C@H](Cc1ccc(OCCc2nc(-c3ccccc3)oc2C)cc1)N/C(C)=C\C(=O)c1ccc(C(F)(F)F)cc1` [GW6471], for which the “Number of colonies formed” value in assay [1] is recorded as “significant reduction in the number of colonies formed”. Further, the “Functionality, Type” value at PPARγ is listed as “antagonist”. In addition, the IC50 against PPARγ (inhibition of agonism by 30 nM rosiglitazone, 16 h incubation, mean of 3 experiments ± SEM) is 210 ± 64 nM; at PPARα, 240 nM.
